Results on two compounds are retold here after patent US7544664B2, “Sequences facilitating penetration of a substance of interest” (priority 2003, dated 2009).

Structures are written as SMILES. ≈ marks a conversion by molar mass, not a printed value. Where a SMILES comes first, the peptide text is derived from it. The star is where a group is joined. X3 = CC(=O)O[C@H]1C(=O)[C@@]2(C)[C@H]([C@H](OC(=O)c3ccccc3)[C@]3(O)C[C@H](OC(=O)[C@H](OC(=O)CCCCCN4C(=O)CC(*)C4=O)[C@@H](NC(=O)c4ccccc4)c4ccccc4)C(C)=C1C3(C)C)[C@]1(OC(C)=O)CO[C@@H]1C[C@@H]2O Where only a bound is given, the exact number is not on record here.

Series [1] deals with Candida parapsilosis (ATCC 22019). As to the kind of experiment: In vitro antifungal activity MIC80 (NCCLS M27A). As to conditions: MIC80, 48 hours, 37° C.; DPV15-AmB and AmB in μg/ml of AmB active product.
The conditions of series [2]: literature (Tabosa Do Egito et al. 1996); cited from earlier work.
The nature of series [3]: Solubility in water / aqueous solutions. As to conditions: water.
Series [4] concerns MES-SA/Dx5: human uterine sarcoma, resistant to paclitaxel. As to conditions: read-out: IC50 values, 1 h incubation + 72 h post-incubation.
Description: MES-SA/Dx5: human uterine sarcoma, resistant to paclitaxel, expressing high P-gp (origin: ATCC #CCL-1977).
The test system of series [5] is OVCAR-3: human ovary carcinoma. Nature of the series: cells. The format is cell-based. As to conditions: OVCAR-3 ovary carcinoma; 1 h incubation + 72 h post-incubation. On the procedure:
OVCAR-3: human ovary carcinoma (origin: ATCC #HTB-161)
(§1) Viability assays were performed. Briefly, cells are seeded in 96-well plates and incubated with increasing concentrations of drugs for 1 hour then cells are rinsed and incubated with fresh medium without drugs for 72 hours. A WST-1 test (from Roche) was performed and IC50 values (drug concentration that inhibits 50% of cell viability) were estimated from sigmoidal regressions.
(§2) We tested the inhibition of in vitro cell proliferation of human carcinoma cells, and we calculated IC50 values=drug concentration that inhibits 50% of cell viability.

The test system of series [6] is NCI-H1299: human non small cell lung carcinoma. Nature of the series: cells. As to conditions: H1299 NSCLC; 1 h incubation + 72 h post-incubation. In kind it is cell-based. On the procedure: NCI-H1299: human non small cell lung carcinoma (NSCLC) (origin: ATCC #CRL-5803)
as §1, §2

By MIC is commonly meant the least concentration at which growth counts as inhibited. High values mean a need for much substance, low ones inhibition by little substance. As to `C[C@@H]1[C@H](O)[C@@H](C)/C=C/C=C/C=C/C=C/C=C/C=C/C=C/[C@H](O[C@@H]2O[C@H](C)[C@@H](O)[C@H](N)[C@@H]2O)C[C@@H]2O[C@](O)(C[C@@H](O)C[C@@H](O)[C@H](O)CC[C@@H](O)C[C@@H](O)CC(=O)O[C@H]1C)C[C@H](O)[C@H]2C(=O)O` [AmB, Amphotericin B], the minimum inhibitory concentration (MIC) in series [1] came to 0.25 µg/mL (≈ 0.271 µM). In series [2], the MTD is listed as 1 mg/kg.

One may read the solubility as the dissolved amount per volume that the medium holds. Low readings indicate a poorly soluble substance, high ones a readily soluble substance. As usually defined, the IC50 is the concentration needed to halve the response being measured. In series [3], `CC(=O)O[C@H]1C(=O)[C@@]2(C)[C@H]([C@H](OC(=O)c3ccccc3)[C@]3(O)C[C@H](OC(=O)[C@H](OC(=O)CCCCCN4C(=O)CC(SC[C@H](NC(=O)[C@H](CCCNC(=N)N)NC(=O)[C@H](CO)NC(=O)[C@H](CCC(N)=O)NC(=O)[C@H](CCCNC(=N)N)NC(=O)[C@H](CCC(=O)O)NC(=O)[C@H](CCCNC(=N)N)NC(=O)[C@H](CCCNC(=N)N)NC(=O)[C@H](CC(C)C)NC(=O)[C@H](CCCNC(=N)N)NC(=O)[C@H](CO)NC(=O)[C@H](CCC(N)=O)NC(=O)[C@H](CCCNC(=N)N)NC(=O)[C@H](CCC(=O)O)NC(=O)[C@H](CCCNC(=N)N)NC(=O)[C@H](CCCNC(=N)N)NC(=O)[C@@H](N)CC(C)C)C(=O)O)C4=O)[C@@H](NC(=O)c4ccccc4)c4ccccc4)C(C)=C1C3(C)C)[C@]1(OC(C)=O)CO[C@@H]1C[C@@H]2O` (stereo partly drawn) [DPV15-E-PTX] (H-LRRERQSRLRRERQSRC(X3)-OH) came in with a solubility of at least 10000 µg/mL. Also, the values for the IC50 in series [4], in series [5] and in series [6] were 33 ± 5.7 µM, 0.37 ± 0.05 µM and 4.3 ± 2.7 µM, respectively.
